Reference: the METLIN SMRT retention time set (Domingo-Almenara et al. 2019)

Test: gradient 5% acetonitrile 3 min, to 50% in 2 min, to 85% in 15 min, held 3 min, 100 µL/min
Conditions: column: Zorbax Extend-C18 2.1 x 50 mm; eluents: water / acetonitrile, 0.1% formic acid
Outline: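 Over 3 months, pure standards in mixtures of ~100 molecules were run by HPLC coupled to a quadrupole time-of-flight mass spectrometer in positive and negative ionization mode. The column was a Zorbax Extend-C18 (2.1 × 50 mm, 1.8 μm) at 100 μL/min, eluted with water and acetonitrile each holding 0.1% formic acid, with 40 μL dead and 900 μL dwell volumes. Retention time was determined from adduct peaks chosen by software and checked manually.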

Structure (SMILES) | RP-LC retention time
COc1cccc(-n2c(=O)c(C(=O)Nc3ccc(F)c(Cl)c3)c(O)c3cccnc32)c1 | 1250 s
O=C(Nc1cccc(N2CC(C(=O)Nc3ccc(C(F)(F)F)cc3)CC2=O)c1)C1CCC1 (configuration not stated) | 880 s
O=C(COc1ccccc1Cl)Nc1cncc(-c2nc3ccccc3o2)c1 | 995 s
Cc1nc(C(=O)Nc2ccc(F)c(C)c2)c(C)o1 | 918 s
Cc1cccc(Nc2c(-c3cccc(O)c3)nc3cnccn23)c1C | 816 s
O=C(CSc1nnnn1-c1ccccc1)Nc1ncc(Cc2ccccc2Cl)s1 | 946 s
CCC(=Cc1ccc(CC)cn1)CC | 686 s
O=C(CSCc1ccccc1)NCC1CCN(C(=O)Nc2ccc(F)cc2)CC1 | 770 s
Cc1ccc(Nc2c(-c3ccc(Cl)cc3)nc3cccc(C)n23)cc1 | 810 s
Cc1ccc2c(Nc3cccc(C)c3C)c(-c3nc(C)no3)cnc2n1 | 797 s
COC(=O)CSc1nnc2c(S(=O)(=O)N3CCN(c4ccc(F)cc4)CC3)cccn12 | 825 s
O=C(Cn1nc2c3cc(-c4ccc(F)cc4)nn3ccn2c1=O)N1CCN(c2ccc(F)cc2)CC1 | 920 s
O=C(NCc1ccco1)c1ccc(-c2ccc(N3CCSCC3)nc2)cc1 | 708 s
CCc1nc(-c2cc(S(=O)(=O)NCC(=O)NC3CC3)c(C)s2)no1 | 740 s
O=C(c1ccc(OCC2CCCN(C(=O)c3ccco3)C2)cc1)N1CCOCC1 (configuration not stated) | 712 s
c1cnc(N2CCN(Cc3ccc4c(c3)OCO4)CC2)nc1 | 432 s
CCN1CCN(CCNC(=O)c2c(-c3ccc(Br)s3)noc2C)CC1 | 618 s
Cc1ccc(C)c(CNS(=O)(=O)c2c(C)sc(C)c2-c2n[nH]c(C)c2C)c1 | 1150 s
CCCN1C(=O)C2CCC(=O)N2c2ccc(C(=O)NCCCN3CCCC3=O)cc21 (configuration not stated) | 631 s
Cc1ccc(-c2nnc(-c3ccccc3Cl)o2)cc1S(=O)(=O)N1CCCC1 | 1090 s
COc1ccc(-c2cc3n(n2)CCCN(S(=O)(=O)c2ccc4c(c2)CCC4)C3)cc1 | 1080 s
CC(C)CC(NC(=O)c1ccc(F)cc1)C(=O)Nc1nc2ccccc2[nH]1 (configuration not stated) | 746 s
O=C(NCc1ccc(F)cc1)C1CCN(c2cc(N3CCCCC3)ncn2)CC1 | 676 s

Structure (SMILES) | RP-LC retention time
CCOC(=O)/C=C/c1ccc(O)c(OC)c1 | 749 s
O=C(Cn1nc2c3sc(N4CCCCC4)nc3ncn2c1=O)Nc1cccc(Br)c1 | 855 s
CCC(=O)N(CCCOC)CC(=O)N1CCc2sccc2C1COc1ccccc1F (configuration not stated) | 912 s
Cc1ccc(S(=O)(=O)N2C(=O)CCC2C(=O)NC2CCCCCCC2)cc1 (configuration not stated) | 1010 s
CCCCNC(=O)CN1CCN(C(=O)c2sc3ncccc3c2-n2cccc2)CC1 | 647 s
CCc1nc(-c2c(C)cc(C)nc2NC(=O)c2ccccc2Br)no1 | 828 s
OC1(Cc2ccccc2)CCNCC1 | 612 s
COc1cc(NC(=O)N2CCCC2c2cccc(F)c2)cc(OC)c1OC (configuration not stated) | 848 s
C=CCNC(=O)c1ccc(-n2nc(C)cc2C)nc1 | 739 s
CCOC(=O)COc1cc(-c2ccccc2)nc2ccc(NC(=O)COC)cc12 | 695 s
CCOC(=O)c1c(NCCC(C)C)c2ccc(Cl)cc2[nH]c1=O | 900 s
COCCNC(=O)N1CCCC(COC)C1 (configuration not stated) | 578 s
Cc1nc(CC(=O)Nc2ccc(F)cc2F)cs1 | 739 s
COc1cccc(CNC(=O)CN2CCN(Cc3ccc(F)cc3)C2=O)c1OC | 772 s
COCC(=O)N(CC(=O)N1CCc2sccc2C1COc1ccc(C(C)C)cc1)C1CC1 (configuration not stated) | 947 s
O=C(c1nnn(Cc2ccc(Cl)cc2)c1-n1cccc1)N1CCSCC1 | 981 s
CCOc1ccc(C2=NC3(CCN(C(C)C)CC3)NC(c3cccc(OC)c3O)C2)cc1 (configuration not stated) | 608 s
CCN1C(=O)C(C)(C(=O)Nc2ccc(C)cc2C)Oc2cccnc21 (configuration not stated) | 744 s
O=C(Nc1nnc(SCc2nnc(-c3ccccc3)o2)s1)c1ccccc1 | 866 s
Cc1ccccc1-c1nnc(CSc2ccc(NC(=O)C3CC3)cc2)o1 | 933 s
CN1C(=O)COc2cc(-c3noc(C(=O)NCc4cccnc4)n3)ccc21 | 613 s
COCCCNC(=O)N1CCC(C)(c2noc(C3CCOCC3)n2)CC1 | 654 s
Cc1ccc(CNC(=O)c2c(C)sc3ccn(CC(C)C)c(=O)c23)cc1 | 999 s

Structure (SMILES) | RP-LC retention time
Cc1cc(C)n(CCNC(=O)NCc2cccs2)n1 | 593 s
Cn1ncc2c3ccccc3n(CCCC(=O)NCc3ccccc3F)c2c1=O | 812 s
Cc1noc(COC2CCCN(C(=O)c3ccc(Cl)s3)C2)n1 (configuration not stated) | 801 s
CCOc1ccc(NC(=O)c2nc(C)oc2C)cc1 | 884 s
COc1ccccc1-c1ccc(SCC(=O)Nc2ccc3c(c2)OCCO3)nn1 | 792 s
Nc1ncnc2c1ncn2C1CCCC1 | 595 s
CCCn1cc(CCNC(=O)c2cccc(Cl)c2)c2cccnc21 | 812 s
c1ccc2c(-c3nc(C4CC4)no3)nnc(NC3CCCC3)c2c1 | 725 s
O=C(c1nc(Nc2ccc(F)cc2)c2ccccc2n1)N1CCCCCC1 | 845 s
O=C(Nc1ccc(F)cc1)N1CCCCCC1 | 738 s
CCCN1CCN(C(=O)CN2C(=O)C3CCCCN3c3ccc(C(=O)N4CCCCC4)cc32)CC1 (configuration not stated) | 652 s
COc1ccc(CN2CC3(CCN(S(=O)(=O)c4cn(C)cn4)CC3)C2=O)cc1 | 688 s
Cn1c(SCC(=O)N2CCCC2)nnc1-c1ccc2c(c1)OCCCO2 | 661 s
CCc1ccc(NC(=O)N2CCC(n3cnc4ccc(C)cc4c3=O)CC2)cc1 | 838 s
Cc1cccc(NS(=O)(=O)c2ccc3c(c2)C(=O)N(C)c2ncccc2O3)c1 | 1050 s
Oc1c(C(c2ccc(F)cc2)N2CCN(c3cccc(Cl)c3)CC2)sc2ncnn12 (configuration not stated) | 852 s
CCc1cccc(NC(=O)N2CCN(c3cc(C)nc(N4CCCC4)n3)CC2)c1 | 704 s
O=C(COc1ccc(F)cc1)Nc1ccc(-c2nc(-c3ccc(F)cc3)no2)cc1 | 1220 s
Cc1cc(C)c(NC(=O)Cn2c(N(C)Cc3ccccc3)nc(C)cc2=O)c(C)c1 | 860 s
c1ccc2nc(OCCN3CC3)ccc2c1 | 727 s
CCN(CC)CCCNC(=O)c1cc(C)nc2ccc(Br)cc12 | 585 s
Cc1sc(-c2cc(C(F)(F)F)on2)cc1S(=O)(=O)NCCC1=CCCCC1 | 1320 s
O=C(O)c1cnc(-c2ccccc2)nc1-c1ccncc1 | 653 s

Structure (SMILES) | RP-LC retention time
Cc1c(C(=O)NCC(C)C)cnn1-c1ccc(-c2nc(C(C)C)no2)cn1 | 1050 s
Cc1ccc(-c2nnc(-c3nn(C)c4c3CN(S(=O)(=O)c3c(C)n[nH]c3C)CC4)o2)cc1 | 782 s
COc1ccc(OC)c(NC(=O)Cn2c(=O)n(-c3ccc(C)cc3)c(=O)c3c2cc(C)n3C)c1 | 908 s
O=C(NCCc1ccccc1)N1CCN(c2ncccc2-c2nnc(C3CC3)o2)CC1 | 765 s
CCCN1C(=O)C(CC(=O)NCC(C)C)Sc2ncccc21 (configuration not stated) | 741 s
CCn1cc(C2=CCN(S(=O)(=O)c3ccc(OC)cc3)CC2)c2cccnc21 | 986 s
CCCC(=O)N1CCCC(COc2ccc(C(=O)NC(C)C)cc2)C1 (configuration not stated) | 784 s
CC(C)N1C(=O)c2cccnc2Sc2cc(NC(=O)C3CCOC3)ccc21 (configuration not stated) | 680 s
COc1ccccc1OCC(=O)N1CCN(c2cc(C(C)C)n3cnnc3n2)CC1 | 626 s
CN1C(=O)c2cc(S(=O)(=O)Nc3ccc4c(c3)OCO4)ccc2Oc2cccnc21 | 850 s
Cc1ccc(NS(=O)(=O)c2cc(-c3[nH]ncc3C(=O)N(C)C)oc2C)cc1C | 729 s
CC(C)Cn1nc2n(c1=O)CCN(S(=O)(=O)c1ccccc1C(F)(F)F)CC2 | 847 s
COc1ccc(NC(=O)C2CCCN(c3nccnc3Sc3ccccc3)C2)c(OC)c1 (configuration not stated) | 1060 s
CCN1CCN(c2ncc3c(n2)CCN(Cc2ccc(Cl)c(F)c2)C3)CC1 | 575 s
COc1ccc(NC(=O)C2CCN(c3nnc4ccccn34)CC2)cc1Cl | 666 s
CCC(=O)N(CC(=O)N1CCc2sccc2C1COc1ccccc1OC)C(C)C (configuration not stated) | 855 s
CC(C)n1ccc(-c2nnc(NC(=O)C3CCCN(S(C)(=O)=O)C3)o2)n1 (configuration not stated) | 609 s
COc1ccc(NC(=O)N2CCC(c3nc(C(=O)N4CCCCC4)c(C)o3)CC2)cc1F | 784 s
Cc1cccc(Cn2nc(-c3nc(C)no3)ccc2=O)c1 | 789 s
COc1ccc(Nc2nc(-c3nnn(-c4ccc(F)cc4F)c3C)ns2)cc1OC | 900 s
Cn1c(SCC(=O)N2CCC(C(N)=O)CC2)nnc1-c1sc2ncccc2c1N | 577 s
O=C(Cc1csc(NC(=O)c2ncccn2)n1)Nc1nc2ccccc2s1 | 670 s
COc1cccc(NC(=O)C2CCN(Cc3cnn(-c4ccccc4)c3-n3cccc3)CC2)c1 | 723 s
